According to PMC3857149, “Identification of Three Antiviral Inhibitors against Japanese Encephalitis Virus from Library of Pharmacologically Active Compounds 1280” (PLoS ONE, 2013):

Experiments:
JEV [1] = test: Western blotting of JEV envelope (E) protein expression in infected BHK-21 cells; assay type: cell-based, Japanese encephalitis virus; details: MOI 0.01, 48 h, normalized to GAPDH
Protocol: BHK-21 cells in 12-well plates were infected with JEV at MOI 0.01. The compounds were then added to cells at final concentrations of 10 and 20 µM. After incubation for 48 h, expression of JEV envelope (E) protein was detected by western blotting. The cells were collected after trypsin digestion and washed in PBS. The cell suspension was mixed with an equal volume of 2×SDS sample buffer. The proteins were electrophoresed in 12% SDS-PAGE and transferred to a nitrocellulose filter membrane (Millipore, Darmstadt, Germany). Western blotting was performed with JEV E protein-specific monoclonal antibody (Mab; 1∶500, constructed in our laboratory) or GAPDH-specific Mab (1∶1000; Proteintech, Chicago, IL, USA) as the primary antibodies, followed by addition of horseradish-peroxidase-conjugated goat anti-mouse IgG (Boster, Wuhan, China) as the secondary antibody. Finally, the protein blots were detected with SuperSignal West Pico Chemiluminescent Substrate (Thermo Scientific, Rockford, IL, USA) and imaged by a MF-ChemiBIS 3.2 (DNR Bio-Imaging Systems, Mahale Hahamisha, Israel). The expression of E and GAPDH was quantified by gray-value analysis using software ImageJ. The expression of E protein was normalized by the expression of GAPDH and the changes of E expression were calculated by comparing to the non-compound treated group.

JEV (P3 strain) = test: CPE-based EC50 assay, JEV-infected BHK-21 cells; assay type: cell-based, Japanese encephalitis virus; details: for EC50: Japanese encephalitis virus, BHK-21, 120 h; for selectivity index: from CC50 and EC50 in BHK-21 cells
Protocol: (§1) Cell viability was evaluated by Celltiter-Glo Luminescent Cell Viability Assay reagent (Promega, Madison, WI, USA) following the manufacturer's protocol. An equal volume of Celltiter-Glo reagents was added to the cells in 96-well white plates (Corning, Tewksbury, MA, USA) and mixed for 2 min on an orbital shaker and incubated for a further 10 min at room temperature. The luminescence of each well was measured by a 1450 MicroBeta TriLux (Perkin Elmer, Waltham, MA, USA). Percentage of cell viability was calculated as follows: Percentage of cell viability = 100× (luminescence of experimental group/luminescence of control group).
BHK-21 cells were seeded onto 96-well plates at 10,000 cells per well. After 12 h incubation, the culture supernatant was replaced with maintenance medium. One microliter of each compound was added to 99 µL maintenance medium in the first well, followed by twofold serial dilutions for two wells. After full mixing in the third well, 50 µL medium was discarded. Then, 50 µL maintenance medium containing 0.02 MOI JEV was added to each well. The plates were subjected to 30 s horizontal shaking to achieve thorough mixing. Three wells of mock-infected cells as well as three wells of JEV-infected cells containing 1% DMSO were set on each plate as controls. After 120 h incubation, the percentage of CPE inhibition was calculated as previously described: Percentage of inhibition = (luminescence of experimental group – average luminescence of virus control) / (average luminescence of cell control – average luminescence of virus control) ×100.
BHK-21 cells were seeded in 96-well white plates at 10,000 cells per well. Twelve hours later, the growth medium was replaced with maintenance medium containing 0.01 MOI JEV as well as different concentrations of compounds. Cell incubation was continued for 120 h, and the percentage of inhibition was measured as described above. The EC50 values were calculated by nonlinear regression analysis.

[2] = cited from earlier work
JEV [3] = test: Indirect immunofluorescence assay (IFA, anti-NS5) in infected BHK-21 cells; assay type: cell-based, Japanese encephalitis virus; details: MOI 0.01, 48 h post-infection; for JEV-negative cells: 5 µM compound; for JEV replication / JEV-positive cells (IFA): 20 µM compound
Protocol: BHK-21 cells were seeded in 12-well plates and inoculated with JEV at MOI 0.01 after 12 h incubation. The compounds were added to cells at concentrations of 5 or 20 µM. After incubation for a further 48 h, virus replication in the cells was evaluated by IFA. The cells were fixed in formaldehyde for 5 min and were incubated with anti-NS5 Mab (1∶500) and then FITC-conjugated goat anti-mouse antibody (Boster) for 30 min respectively. Finally, the cells were stained with DAPI (Sigma-Aldrich) and imaged by a fluorescence microscope (Olympus IX70; Olympus, Tokyo, Japan).

JEV [4] = test: Plaque reduction assay; assay type: cell-based, Japanese encephalitis virus
Protocol: BHK-21 cells were plated in 96-well plates at a density of 10,000 cells per well and grown for 12 h for cell attachment. The cells were infected with JEV at MOI 0.01 in the presence of different concentrations (20, 15, 10, and 5 µM) of compounds. Each concentration was assayed in triplicate. Forty-eight hours post-infection, the viruses in each group were harvested by freezing/thawing three times and mixed in a tube. Then, 50 µL virus suspension was inoculated into BHK-21 cells in 12-well plates for the plaque assay, as previously described.

[5] = Cytotoxicity of compounds (Celltiter-Glo cell viability); assay type: cell-based; details: hamster; BHK-21 cells, 120 h incubation; read-out: CC50 (50% cytotoxicity concentration)
Protocol: as §1
BHK-21 cells were seeded in 96-well white plates at 10,000 cells per well. After 12 h incubation for cell attachment, different concentrations of compounds were added to the cells. Cell viability was tested as described above after 120 h incubation. The 50% cytotoxicity concentration (CC50) was calculated by nonlinear regression analysis.

[6] = cited from earlier work; remark: listed apart in the source

Structure (SMILES)	E expression decrease (gray-value analysis) (JEV [1]; 10 µM compound)	E expression decrease (gray-value analysis) (JEV [1]; 20 µM compound)	EC50 (JEV (P3 strain))	selectivity index (JEV (P3 strain))	MLD50 [2]	JEV-negative cells (JEV [3])	JEV replication / JEV-positive cells (IFA) (JEV [3])	replication of JEV (JEV [4]; 20 or 15 µM compound)	CC50 at 120 h [5]	ability to enter the brain [6]	number of plaques (JEV [4]; 10 µM compound, 48 h, MOI 0.01)	virus titer (JEV [4]; 10 µM compound, 48 h, MOI 0.01, untreated 2.7×10^6 PFU/mL)
COCCOC(=O)C1=C(C)NC(C)=C(C(=O)OC/C=C/c2ccccc2)C1c1cccc([N+](=O)[O-])c1 (centres unmarked) [cilnidipine]	~56%	~75%	6.52 µM	30.67	> 5000 mg/kg	~60%	Absolute inhibition of JEV replication	almost completely inhibited	> 200 µM	–	–	–
CCCCCCN(CCCCCC)C(=O)Cc1c(-c2ccc(F)cc2)[nH]c2ccccc12 [FGIN-1-27, N,N-dihexyl-2-(4-fluorophenyl)indole-3-acetamide]	–	–	3.21 µM	38.79	–	about 80%	few cells were JEV-positive	–	124 µM	had the ability to enter the brain	< 20	< 400 PFU/mL
O=C(Nc1ccc([N+](=O)[O-])cc1Cl)c1cc(Cl)ccc1O [niclosamide]	about 85%	–	5.8 µM	7.49	–	~30%	few cells were JEV-positive	–	43.3 µM	–	–	–
